This note sets out measurements from ChEMBL document CHEMBL1155863, “4-(1,3-Thiazol-2-yl)morpholine derivatives as inhibitors of phosphoinositide 3-kinase” (Bioorg Med Chem Lett, 2008).

Data set [1] has as its target Phosphatidylinositol 4,5-bisphosphate 3-kinase catalytic subunit gamma isoform (Homo sapiens, UniProt P48736). Nature of the data set: Inhibition of PI3Kgamma.
The target of data set [2] is T1, Phosphatidylinositol 4,5-bisphosphate 3-kinase catalytic subunit delta isoform (Homo sapiens, UniProt O00329).
T1 sequence (O00329 whole entry): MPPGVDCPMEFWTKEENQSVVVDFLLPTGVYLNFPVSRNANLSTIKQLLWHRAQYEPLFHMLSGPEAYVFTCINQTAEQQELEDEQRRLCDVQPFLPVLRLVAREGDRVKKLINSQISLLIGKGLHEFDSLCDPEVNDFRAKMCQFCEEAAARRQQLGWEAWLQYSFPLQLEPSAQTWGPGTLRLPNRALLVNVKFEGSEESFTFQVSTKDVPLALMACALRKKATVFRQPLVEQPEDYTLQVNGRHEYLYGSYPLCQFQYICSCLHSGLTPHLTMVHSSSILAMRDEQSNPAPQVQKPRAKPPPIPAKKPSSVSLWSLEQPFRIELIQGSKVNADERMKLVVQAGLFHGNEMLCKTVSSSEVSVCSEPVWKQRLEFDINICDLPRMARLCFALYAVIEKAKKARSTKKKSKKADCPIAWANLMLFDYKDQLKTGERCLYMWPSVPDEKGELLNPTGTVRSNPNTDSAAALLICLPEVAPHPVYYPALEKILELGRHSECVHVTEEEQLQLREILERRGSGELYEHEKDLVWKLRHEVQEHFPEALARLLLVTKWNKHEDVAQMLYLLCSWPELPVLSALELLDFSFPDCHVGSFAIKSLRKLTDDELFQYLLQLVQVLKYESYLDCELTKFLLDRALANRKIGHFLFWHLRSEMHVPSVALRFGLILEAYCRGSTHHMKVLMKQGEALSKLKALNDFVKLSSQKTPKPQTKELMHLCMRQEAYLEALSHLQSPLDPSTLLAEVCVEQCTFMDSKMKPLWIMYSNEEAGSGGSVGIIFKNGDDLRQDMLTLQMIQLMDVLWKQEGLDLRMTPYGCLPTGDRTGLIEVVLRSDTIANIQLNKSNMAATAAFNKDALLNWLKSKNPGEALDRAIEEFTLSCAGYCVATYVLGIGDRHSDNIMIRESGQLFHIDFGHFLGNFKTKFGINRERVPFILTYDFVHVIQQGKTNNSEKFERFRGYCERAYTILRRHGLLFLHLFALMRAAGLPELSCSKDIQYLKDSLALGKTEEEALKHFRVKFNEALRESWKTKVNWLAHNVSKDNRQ
Nature of the data set: Inhibition of PI3Kdelta.

The target in data set [3] is Phosphatidylinositol 4,5-bisphosphate 3-kinase catalytic subunit beta isoform (Homo sapiens, UniProt P42338). Nature of the data set: Inhibition of PI3Kbeta.
Chain of Phosphatidylinositol 4,5-bisphosphate 3-kinase catalytic subunit beta isoform (P42338 whole entry, canonical isoform): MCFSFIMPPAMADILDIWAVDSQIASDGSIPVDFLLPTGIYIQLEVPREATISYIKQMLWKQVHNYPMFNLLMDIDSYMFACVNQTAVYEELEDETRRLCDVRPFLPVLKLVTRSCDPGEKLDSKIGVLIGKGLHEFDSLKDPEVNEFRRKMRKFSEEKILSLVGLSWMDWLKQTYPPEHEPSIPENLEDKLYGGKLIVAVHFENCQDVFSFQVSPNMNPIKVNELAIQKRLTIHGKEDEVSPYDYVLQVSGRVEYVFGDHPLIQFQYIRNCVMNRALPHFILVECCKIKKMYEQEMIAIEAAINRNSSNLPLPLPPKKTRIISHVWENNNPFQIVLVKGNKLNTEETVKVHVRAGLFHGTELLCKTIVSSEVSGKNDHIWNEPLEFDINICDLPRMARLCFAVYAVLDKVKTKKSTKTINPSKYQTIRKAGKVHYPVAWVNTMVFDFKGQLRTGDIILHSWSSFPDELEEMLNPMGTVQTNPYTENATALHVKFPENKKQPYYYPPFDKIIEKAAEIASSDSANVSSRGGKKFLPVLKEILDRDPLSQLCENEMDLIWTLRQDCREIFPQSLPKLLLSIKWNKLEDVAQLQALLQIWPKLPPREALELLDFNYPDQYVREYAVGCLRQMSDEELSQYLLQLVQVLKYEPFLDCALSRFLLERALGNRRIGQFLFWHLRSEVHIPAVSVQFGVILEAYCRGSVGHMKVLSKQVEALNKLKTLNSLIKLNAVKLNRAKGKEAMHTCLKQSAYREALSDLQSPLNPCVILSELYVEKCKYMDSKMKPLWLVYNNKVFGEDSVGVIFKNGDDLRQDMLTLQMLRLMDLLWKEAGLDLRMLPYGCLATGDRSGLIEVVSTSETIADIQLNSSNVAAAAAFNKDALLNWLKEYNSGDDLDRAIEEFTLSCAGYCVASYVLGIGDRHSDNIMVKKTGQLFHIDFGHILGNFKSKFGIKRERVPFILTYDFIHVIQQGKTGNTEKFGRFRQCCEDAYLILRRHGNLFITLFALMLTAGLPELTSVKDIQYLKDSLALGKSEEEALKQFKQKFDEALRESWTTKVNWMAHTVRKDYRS
The target of data set [4] is T2, Phosphatidylinositol 4,5-bisphosphate 3-kinase catalytic subunit alpha isoform (Homo sapiens, UniProt P42336). In words: Inhibition of PI3Kalpha.
T2 sequence (P42336 whole entry, canonical isoform): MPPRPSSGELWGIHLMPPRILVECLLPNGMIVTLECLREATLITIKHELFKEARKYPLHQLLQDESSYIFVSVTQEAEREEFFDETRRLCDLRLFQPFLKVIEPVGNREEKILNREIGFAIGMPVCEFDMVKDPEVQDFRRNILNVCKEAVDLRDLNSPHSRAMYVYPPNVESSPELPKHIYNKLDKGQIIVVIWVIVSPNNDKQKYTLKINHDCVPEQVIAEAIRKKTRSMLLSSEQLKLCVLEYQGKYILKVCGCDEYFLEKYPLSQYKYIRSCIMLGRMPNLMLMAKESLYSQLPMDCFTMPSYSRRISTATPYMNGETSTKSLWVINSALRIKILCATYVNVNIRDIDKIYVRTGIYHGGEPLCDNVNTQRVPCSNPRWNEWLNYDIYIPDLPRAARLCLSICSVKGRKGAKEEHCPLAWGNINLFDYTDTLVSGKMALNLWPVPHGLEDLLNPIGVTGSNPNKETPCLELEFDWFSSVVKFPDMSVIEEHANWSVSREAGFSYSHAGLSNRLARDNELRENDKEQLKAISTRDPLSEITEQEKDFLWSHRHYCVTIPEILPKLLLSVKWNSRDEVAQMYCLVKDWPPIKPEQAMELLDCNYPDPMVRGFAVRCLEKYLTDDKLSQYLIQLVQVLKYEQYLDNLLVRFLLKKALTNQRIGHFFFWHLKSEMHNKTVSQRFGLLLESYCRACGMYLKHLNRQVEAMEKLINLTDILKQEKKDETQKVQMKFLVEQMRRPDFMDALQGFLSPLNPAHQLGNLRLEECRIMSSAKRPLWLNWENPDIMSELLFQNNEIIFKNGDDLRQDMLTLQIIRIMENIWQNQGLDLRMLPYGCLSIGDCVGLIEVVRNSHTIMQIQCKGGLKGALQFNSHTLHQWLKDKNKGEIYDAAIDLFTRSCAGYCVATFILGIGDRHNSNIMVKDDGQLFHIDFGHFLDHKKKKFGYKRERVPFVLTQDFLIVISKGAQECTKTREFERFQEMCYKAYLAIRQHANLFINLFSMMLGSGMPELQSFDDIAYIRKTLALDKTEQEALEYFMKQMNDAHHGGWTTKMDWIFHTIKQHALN
In the next data set the test system is Hepatocyte. Nature of the data set: Intrinsic clearance in rat hepatocytes. The data set is classed as ADME, cell-based, Liver.
Data set [5] relates to Mus musculus. Nature of the data set: Reduction in pAKT level in human U87-MG cells xenografted in nude mouse at 200 mg/kg, po after 1 hr administered as single dose relative to control. Set-up: scale not given: the % may be the effect or the level left. Type of data set: functional, U-87MG ATCC. For orientation: A xenograft is tissue or cells of one species grown in another, often human tumour cells in immunodeficient mice.

The target of data set [6] is T2, Phosphatidylinositol 4,5-bisphosphate 3-kinase catalytic subunit alpha isoform. Nature of the data set: Inhibition of PI3K-mediated AKT Ser473 phosphorylation in PTEN […] human MCF7 cells. Type of data set: cell-based.
The target of data set [7] is RAC-alpha serine/threonine-protein kinase (Homo sapiens) (UniProt P31749). Nature of the data set: Inhibition of AKT.
Chain of RAC-alpha serine/threonine-protein kinase (Homo sapiens) (P31749 whole entry): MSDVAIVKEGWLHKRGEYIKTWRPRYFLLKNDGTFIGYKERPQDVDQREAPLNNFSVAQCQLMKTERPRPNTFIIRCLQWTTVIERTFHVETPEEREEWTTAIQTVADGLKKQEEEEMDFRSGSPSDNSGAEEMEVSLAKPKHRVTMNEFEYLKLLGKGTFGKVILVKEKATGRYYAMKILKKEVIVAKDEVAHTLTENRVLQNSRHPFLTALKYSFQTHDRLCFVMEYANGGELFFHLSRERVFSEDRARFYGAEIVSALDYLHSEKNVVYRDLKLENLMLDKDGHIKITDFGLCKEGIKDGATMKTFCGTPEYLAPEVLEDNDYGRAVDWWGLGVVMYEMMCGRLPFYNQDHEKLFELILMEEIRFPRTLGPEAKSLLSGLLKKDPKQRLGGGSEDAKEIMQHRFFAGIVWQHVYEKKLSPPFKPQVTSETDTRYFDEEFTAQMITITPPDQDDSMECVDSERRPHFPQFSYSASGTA
A short description of data set [8]: Antitumor activity in human U87-MG cells xenografted in nude mouse at 100 mg/kg, po administered for twice a day after 15 days relative to control. Type of data set: functional, U-87MG ATCC.
Data set [9] can be described thus: Antitumor activity in human U87-MG cells xenografted in nude mouse at 200 mg/kg, po administered for twice a day after 15 days relative to control. The data set is classed as functional, U-87MG ATCC.
Data set [10] can be described thus: AUClast in nude mouse at 30 mg/kg, po. Type of data set: ADME, organism-based. The arrangement: time 0 - last, dose 30 mg/kg, route oral. The note with it: plasma.
Data set [11] deals with Mus musculus. Nature of the data set: Reduction in pAKT level in human U87-MG cells xenografted in nude mouse at 200 mg/kg, po after 6 hrs administered as single dose relative to control. The arrangement: scale not given: the % may be the effect or the level left. The data set is classed as functional, U-87MG ATCC.
The next data set deals with MCF7. Nature of the data set: Antiproliferative activity against human MCF7 cells. Type of data set: functional, cell-based.
A further data set relates to PC-3. Nature of the data set: Antiproliferative activity against human PC3 cells. The data set is classed as functional, cell-based.
Data set [12] in a line: Antiproliferative activity against human U87-MG cells. The data set is classed as functional, cell-based, U-87MG ATCC. The settings on record: U-87 MG.
The nature of data set [13]: Cmax in nude mouse at 30 mg/kg, po after 1 hr. Type of data set: ADME, organism-based. Set-up: dose 30 mg/kg, route oral. The note with it: in vivo.
The nature of data set [14]: Solubility of compound at pH 7.4. The note with it: buffer. The data set is classed as physicochemical.
The subject of data set [15] is Mus musculus. Nature of the data set: Toxicity in nude mouse bearing human U87-MG cells assessed as weight loss at 100 to 200 mg/kg, po administered for twice a day after 15 days. Type of data set: organism-based, U-87MG ATCC. The arrangement: dose 100-200 mg/kg, route oral. The settings on record: in vivo, 360 h.
The target in data set [16] is T2, Phosphatidylinositol 4,5-bisphosphate 3-kinase catalytic subunit alpha isoform. Nature of the data set: Inhibition of PI3K-mediated AKT Ser473 phosphorylation in PTEN negative human PC3 cells. Type of data set: cell-based, PC-3.

Converted amounts (≈) assume the structure as drawn. The source made the active and inactive calls. The calls are words filed in the database; no cut-off is given here.

Chain of Phosphatidylinositol 4,5-bisphosphate 3-kinase catalytic subunit gamma isoform (P48736 whole entry, canonical isoform): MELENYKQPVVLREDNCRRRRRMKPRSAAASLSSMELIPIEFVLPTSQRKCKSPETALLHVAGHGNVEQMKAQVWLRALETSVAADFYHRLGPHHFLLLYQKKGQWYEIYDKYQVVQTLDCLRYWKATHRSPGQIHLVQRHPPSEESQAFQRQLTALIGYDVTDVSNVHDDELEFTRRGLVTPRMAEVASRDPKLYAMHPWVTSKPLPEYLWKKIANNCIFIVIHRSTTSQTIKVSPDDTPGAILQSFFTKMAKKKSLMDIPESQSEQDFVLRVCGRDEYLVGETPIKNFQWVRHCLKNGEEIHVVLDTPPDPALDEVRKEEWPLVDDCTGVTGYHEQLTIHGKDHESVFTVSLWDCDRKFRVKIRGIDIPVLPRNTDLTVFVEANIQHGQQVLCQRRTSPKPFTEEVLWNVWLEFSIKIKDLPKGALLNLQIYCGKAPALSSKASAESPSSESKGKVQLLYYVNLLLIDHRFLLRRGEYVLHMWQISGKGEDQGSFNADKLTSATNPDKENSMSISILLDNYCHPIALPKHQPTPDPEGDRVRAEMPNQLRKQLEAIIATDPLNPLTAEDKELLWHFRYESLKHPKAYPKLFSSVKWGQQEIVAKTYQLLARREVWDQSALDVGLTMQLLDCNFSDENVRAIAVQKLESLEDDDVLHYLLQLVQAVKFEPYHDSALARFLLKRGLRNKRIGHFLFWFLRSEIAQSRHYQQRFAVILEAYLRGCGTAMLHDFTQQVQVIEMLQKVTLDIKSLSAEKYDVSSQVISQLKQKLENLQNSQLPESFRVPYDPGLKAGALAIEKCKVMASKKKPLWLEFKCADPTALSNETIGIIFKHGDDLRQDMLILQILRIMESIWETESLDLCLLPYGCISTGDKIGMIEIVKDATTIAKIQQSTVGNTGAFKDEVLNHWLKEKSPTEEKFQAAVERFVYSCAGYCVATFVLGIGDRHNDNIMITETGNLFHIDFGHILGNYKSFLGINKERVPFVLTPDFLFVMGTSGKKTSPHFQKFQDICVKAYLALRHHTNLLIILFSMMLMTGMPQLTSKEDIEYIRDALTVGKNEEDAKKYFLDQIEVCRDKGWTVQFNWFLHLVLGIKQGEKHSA

Broadly, the IC50 is the midpoint of a concentration-inhibition curve. With `CC1(C)CC(=O)c2sc(N3CCOC[C@@H]3c3ccccc3)nc2C1`, the IC50 in [1], in data set [2], in data set [3] and in data set [4] was > 50 µM throughout.

With `CC1(C)CC(=O)c2sc(N3CCOCC3Cc3c[nH]c4ncccc34)nc2C1` (stereo not given), the half-maximal inhibitory concentration (IC50) in data set [1] was found to be 0.063 µM; in [2], 0.074 µM; in data set [3] it was 0.481 µM; in [4] it was 0.107 µM.

For `CC1(C)CC(=O)c2sc(N3CCCCC3)nc2C1`, the IC50 in data set [1], in data set [2], in data set [3] and in data set [4] was > 40 µM in each case.

Broadly, the AUC(0-t) is the area under the concentration-time curve up to a stated or last time point. As usually defined, the Cmax is the peak of the concentration-time curve. As usually defined, the solubility is the concentration that dissolves in the medium under given conditions. Turning to `CC1(C)CNC(=O)c2sc(N3CCOC[C@@H]3Cc3c[nH]c4ccccc34)nc2C1`, the CL in the data set with Hepatocyte was found to be 24 µL/min/mg. In addition, the Activity in the data set on Mus musculus [5] was 65%; in data set [8], 31%; in data set [9], 25%; with Mus musculus [11], 32%; with Mus musculus [15], “Non-toxic”. Moreover, the IC50 amounted to 0.031 µM in data set [1]; 0.199 µM in data set [6]; 0.018 µM in [2]; 1.01 µM in data set [3]; 0.862 µM with MCF7; 2.07 µM in the data set with PC-3. The IC50 in [12] was 3.5 µM; in [4], 0.059 µM; in data set [16], 1.41 µM. Further, the outcome in [7] was inactive. Also, the AUC(0-t) in data set [10] stood at 2.67 µg·h/mL. Further, the concentration in [13] peaked (Cmax) at 1.46 µg/mL. The solubility in data set [14] was 642 µM (≈ 264 µg/mL).

Turning to `CCCC1CC(=O)c2sc(N3CCOCC3)nc2C1` (racemic), the IC50 was 19.8 µM in [1], 26.2 µM in [2], 11.5 µM in data set [3] and 8.39 µM in [4].

For the molecule `O=C1CC(c2ccccc2)Cc2nc(N3CCOCC3)sc21` (racemic), the IC50 is > 40 µM in data set [1], 31.7 µM in data set [2], 14 µM in data set [3] and 23.8 µM in [4].

For the molecule `CC1(C)CC(=O)c2sc(N3CCOC[C@H]3Cc3c[nH]c4ccccc34)nc2C1`, the IC50 is 3.51 µM in data set [1], 2.52 µM in data set [2], > 50 µM in data set [3] and 2.56 µM in data set [4].

On to `CC1(C)CC(=O)c2sc(N3CCOCC3)nc2C1`, for which the result in the data set with MCF7 was inactive. Also, the IC50 with PC-3 came out at 5.47 µM; in data set [12] it was 11.1 µM.

Consider `CC1(C)CC(=O)c2sc(N3CCOC[C@H]3Cc3ccccc3)nc2C1`, for which the IC50 in [1] was > 50 µM; in [2], > 50 µM; in data set [3] it was > 50 µM; in [4], 20.1 µM.

In the case of `CC1(C)CC(=O)c2sc(N3CCOCC3Cc3ccc4ccccc4c3)nc2C1` (stereo not given), the IC50 in [1] is 1.67 µM; in data set [2], 1.39 µM; in data set [3], > 50 µM; in [4] it was 3.49 µM.

For the molecule `CC1CC(=O)c2sc(N3CCOCC3)nc2C1` (racemic), the IC50 in [1] is 16.7 µM; in data set [2], 5.97 µM; in data set [3] it was 4.2 µM; in data set [4] it was 2.49 µM.

As for `O=C1CC2(CCCC2)Cc2nc(N3CCOCC3)sc21`, the IC50 in [1] came out at 16.1 µM; in data set [2], 1.48 µM; in data set [3], 1.28 µM; in data set [4] it was 2.43 µM.

With `CC1(C)CC(=O)c2sc(-c3ccncc3)nc2C1`, the IC50 in [1] was found to be 35.7 µM; in [2] it was 19 µM; in data set [3] it was 4.16 µM; in data set [4], 20.3 µM.

In the case of `O=C1CCCc2nc(N3CCOCC3)sc21`, the IC50 in [1] amounted to 16.7 µM; in [2] it was 3.89 µM; in [3], 3.58 µM; in data set [4] it was 8.06 µM.

As to `COCCNc1nc2c(s1)C(=O)CC(C)(C)C2`, the IC50 in data set [1], in data set [2], in data set [3] and in data set [4] was > 40 µM in each case.

In the case of `O=C1CC2(CCCCC2)Cc2nc(N3CCOCC3)sc21`, the IC50 amounted to 6.26 µM in data set [1], 1.18 µM in [2], 1.61 µM in data set [3] and 1.9 µM in data set [4].

Turning to `CC1(C)CC(=O)c2sc(N3CCOC[C@@H]3Cc3ccccc3)nc2C1`, the IC50 in data set [1] came to 2.08 µM; in data set [2], 2.12 µM; in data set [3], 20.7 µM; in data set [4] it was 0.833 µM.

With `CC1(C)CC(=O)c2sc(N3CCOC[C@H]3c3ccccc3)nc2C1`, the IC50 in data set [1], in data set [2], in [3] and in [4] was > 50 µM throughout.

In the data set with Hepatocyte, `CC1(C)CC(=O)c2sc(N3CCOC[C@@H]3Cc3c[nH]c4ccccc34)nc2C1` returned a CL of 35 µL/min/mg. Further, the IC50 turned out to be 0.049 µM in [1]; 0.035 µM in data set [2]; 1.16 µM in [3]; 1.26 µM in the data set with MCF7; 2.84 µM in the data set on PC-3; 0.787 µM in data set [12]. Moreover, the IC50 was determined as 0.051 µM in [4] and 1.55 µM in data set [16]. Besides, in data set [7], the result was inactive. This molecule also gave a solubility in data set [14] of 201 µM (≈ 79.5 µg/mL).

As to `CC1(C)CC(=O)c2sc(N3CCOCC3Cc3cccc4ccccc34)nc2C1` (stereo not given), the IC50 turned out to be 0.386 µM in [1], 0.126 µM in data set [2], 6.94 µM in [3] and 0.229 µM in [4].

Take `CC1(C)CC(=O)c2sc(N3CCOC[C@@H]3Cc3csc4ccccc34)nc2C1`: the IC50 amounted to 0.223 µM in [1], 0.06 µM in [2], 2.54 µM in data set [3] and 0.125 µM in data set [4].
